Assay results as given in ChEMBL document CHEMBL1909046, “DrugMatrix in vitro pharmacology data”.
pIC50, pKi: −log10 of the molar value.

Assays:
[1] = biological target: T1, Vasoactive intestinal polypeptide receptor 1 (Homo sapiens, UniProt P32241); type: cell membranes, Membrane; conditions: ht-29; note: in other assays of this panel Not Active means under 50% inhibition at 10 µM
T1 sequence (P32241 whole entry): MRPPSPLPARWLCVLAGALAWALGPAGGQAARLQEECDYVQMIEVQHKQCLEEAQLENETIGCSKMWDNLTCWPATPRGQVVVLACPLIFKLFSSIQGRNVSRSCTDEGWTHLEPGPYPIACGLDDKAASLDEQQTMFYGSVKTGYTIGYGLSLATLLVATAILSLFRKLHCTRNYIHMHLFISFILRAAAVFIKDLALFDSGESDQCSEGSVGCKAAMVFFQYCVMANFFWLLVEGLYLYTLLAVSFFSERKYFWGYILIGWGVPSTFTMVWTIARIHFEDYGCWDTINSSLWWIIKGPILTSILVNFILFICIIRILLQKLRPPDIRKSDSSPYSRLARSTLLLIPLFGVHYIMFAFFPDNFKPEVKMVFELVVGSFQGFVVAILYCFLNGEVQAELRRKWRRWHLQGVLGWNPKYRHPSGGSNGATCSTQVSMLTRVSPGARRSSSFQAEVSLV

Caspase-1 = biological target: T2, Caspase-1 (Homo sapiens, UniProt P29466); set-up: species or system Escherichia coli;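 note: Caspase-1 enzyme inhibition assay with a peptide substrate; in other assays of this panel Not Active means under 50% inhibition at 10 µM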
T2 sequence (P29466 whole entry): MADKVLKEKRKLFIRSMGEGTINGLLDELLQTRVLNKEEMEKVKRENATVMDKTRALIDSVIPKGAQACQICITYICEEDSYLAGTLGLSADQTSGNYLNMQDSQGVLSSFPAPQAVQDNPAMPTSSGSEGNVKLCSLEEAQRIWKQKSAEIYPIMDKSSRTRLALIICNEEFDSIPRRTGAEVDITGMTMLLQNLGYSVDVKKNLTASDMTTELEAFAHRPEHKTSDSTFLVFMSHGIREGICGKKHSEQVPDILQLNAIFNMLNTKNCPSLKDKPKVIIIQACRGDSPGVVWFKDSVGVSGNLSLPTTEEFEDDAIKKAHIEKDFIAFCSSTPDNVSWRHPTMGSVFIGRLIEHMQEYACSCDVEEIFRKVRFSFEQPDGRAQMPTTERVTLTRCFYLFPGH

[2] = biological target: T3, Alpha-2C adrenergic receptor (Homo sapiens, UniProt P18825); experiment: DRUGMATRIX: Adrenergic Alpha-2C radioligand binding (ligand: [3H] MK-912); type: cell membranes, Sf9, Membrane; conditions: for IC50: sf9
T3 sequence (P18825 whole entry): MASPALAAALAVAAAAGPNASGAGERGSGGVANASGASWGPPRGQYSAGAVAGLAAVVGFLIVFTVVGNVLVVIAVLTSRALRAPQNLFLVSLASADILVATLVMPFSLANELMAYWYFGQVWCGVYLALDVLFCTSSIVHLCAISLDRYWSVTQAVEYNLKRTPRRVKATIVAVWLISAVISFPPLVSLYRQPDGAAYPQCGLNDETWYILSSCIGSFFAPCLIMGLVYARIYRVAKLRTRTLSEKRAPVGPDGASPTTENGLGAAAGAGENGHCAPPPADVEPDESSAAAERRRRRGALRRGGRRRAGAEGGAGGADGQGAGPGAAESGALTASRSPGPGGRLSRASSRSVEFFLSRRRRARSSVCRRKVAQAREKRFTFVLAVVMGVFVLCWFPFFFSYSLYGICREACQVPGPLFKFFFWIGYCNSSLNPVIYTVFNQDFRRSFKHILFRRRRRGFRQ

Acetylcholinesterase = Acetylcholinesterase (Homo sapiens, UniProt P22303); experiment: DRUGMATRIX: Acetylcholinesterase enzyme inhibition (substrate: acetylthiocholine); type: cell-based, HEK293; conditions: hek293; Not Active = under 50% inhibition at 10 µM
Chain of Acetylcholinesterase (P22303 whole entry): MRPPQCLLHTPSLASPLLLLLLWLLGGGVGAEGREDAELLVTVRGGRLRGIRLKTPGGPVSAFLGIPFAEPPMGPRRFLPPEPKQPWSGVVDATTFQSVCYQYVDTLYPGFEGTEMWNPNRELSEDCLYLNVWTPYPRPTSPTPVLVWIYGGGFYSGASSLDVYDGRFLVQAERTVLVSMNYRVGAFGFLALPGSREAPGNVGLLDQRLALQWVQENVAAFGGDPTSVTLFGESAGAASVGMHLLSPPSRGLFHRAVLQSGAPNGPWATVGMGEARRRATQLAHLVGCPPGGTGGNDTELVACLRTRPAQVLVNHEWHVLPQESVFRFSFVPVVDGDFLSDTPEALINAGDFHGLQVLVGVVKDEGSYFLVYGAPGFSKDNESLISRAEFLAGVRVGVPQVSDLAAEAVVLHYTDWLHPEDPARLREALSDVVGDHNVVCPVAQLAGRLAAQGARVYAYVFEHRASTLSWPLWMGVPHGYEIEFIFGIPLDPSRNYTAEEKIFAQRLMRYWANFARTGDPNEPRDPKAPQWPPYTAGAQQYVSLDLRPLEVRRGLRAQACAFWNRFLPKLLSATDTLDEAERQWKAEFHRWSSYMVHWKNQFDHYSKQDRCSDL

[3] = biological target: T4, Alpha-1A adrenergic receptor (Rattus norvegicus, UniProt P43140); experiment: DRUGMATRIX: Alpha-1A adrenergic receptor radioligand binding (ligand: prazosin); type: cell membranes, Wistar, Submaxillary gland, Membrane; conditions: Not Active = under 50% inhibition at 10 µM
T4 sequence (P43140 whole entry): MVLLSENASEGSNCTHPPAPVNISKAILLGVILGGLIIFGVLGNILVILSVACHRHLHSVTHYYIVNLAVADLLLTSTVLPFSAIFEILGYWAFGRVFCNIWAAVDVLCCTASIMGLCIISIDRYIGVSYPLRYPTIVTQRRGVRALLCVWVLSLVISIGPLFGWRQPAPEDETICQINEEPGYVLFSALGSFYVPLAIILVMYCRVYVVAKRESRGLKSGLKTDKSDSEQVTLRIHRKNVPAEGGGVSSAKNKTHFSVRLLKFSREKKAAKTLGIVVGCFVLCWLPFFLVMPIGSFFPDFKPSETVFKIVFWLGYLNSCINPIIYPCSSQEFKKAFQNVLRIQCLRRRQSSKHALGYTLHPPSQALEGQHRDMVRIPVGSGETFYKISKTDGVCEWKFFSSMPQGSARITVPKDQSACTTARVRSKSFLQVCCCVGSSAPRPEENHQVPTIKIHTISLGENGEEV

[4] = biological target: Protein kinase C alpha type (Homo sapiens, UniProt P17252); type: cell-based; conditions: sf9;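 note: inhibition of PKCalpha kinase activity measured in an enzyme assay with histone as the phosphorylation substrate; in other assays of this panel Not Active means under 50% inhibition at 10 µM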
[5] = biological target: 5-hydroxytryptamine receptor 1B (Rattus norvegicus, UniProt P28564); type: cell membranes, Wistar, Cerebral cortex, Membrane; note: in other assays of this panel Not Active means under 50% inhibition at 10 µM
Chain of 5-hydroxytryptamine receptor 1B (P28564 whole entry): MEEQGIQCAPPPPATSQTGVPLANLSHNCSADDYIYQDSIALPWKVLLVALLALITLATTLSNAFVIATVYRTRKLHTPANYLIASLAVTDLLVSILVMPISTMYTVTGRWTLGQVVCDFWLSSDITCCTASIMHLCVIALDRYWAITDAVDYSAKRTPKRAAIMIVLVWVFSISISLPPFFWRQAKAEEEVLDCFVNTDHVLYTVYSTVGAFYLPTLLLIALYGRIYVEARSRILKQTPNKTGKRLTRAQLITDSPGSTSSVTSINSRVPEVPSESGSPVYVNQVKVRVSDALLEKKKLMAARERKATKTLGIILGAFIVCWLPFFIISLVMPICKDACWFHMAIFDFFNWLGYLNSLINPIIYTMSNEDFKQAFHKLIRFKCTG

Structure (SMILES)	IC50 [1]	IC50 (Caspase-1)	IC50 [2]	IC50 (Acetylcholinesterase)	IC50 [3]	IC50 [4]	IC50 [5]	pIC50 ([2]; read-out: IC50)	pKi ([2]; read-out: Ki)
CC(=O)Oc1ccccc1C(=O)O [ASPIRIN]	Not Active	Not Active	Not Active	Not Active	Not Active	Not Active	Not Active		
CC(C)c1c(C(=O)Nc2ccccc2)c(-c2ccccc2)c(-c2ccc(F)cc2)n1CC[C@@H](O)C[C@@H](O)CC(=O)O [ATORVASTATIN]	Not Active	Not Active	Not Active	Not Active	Not Active	Not Active	Not Active		
CC(=O)OC[C@H]1O[C@@H](n2ncc(=O)[nH]c2=O)[C@H](OC(C)=O)[C@@H]1OC(C)=O [AZARIBINE]	Not Active	Not Active	Not Active	Not Active	Not Active	Not Active	Not Active		
C[C@H]1[C@H](NC(=O)/C(=N\OC(C)(C)C(=O)O)c2csc(N)n2)C(=O)N1S(=O)(=O)O [AZTREONAM]	Not Active	Not Active	Not Active	Not Active	Not Active	Not Active	Not Active		
O=C(O)CCNC(=O)c1ccc(/N=N/c2ccc(O)c(C(=O)O)c2)cc1 [BALSALAZIDE]	Not Active	Not Active	Not Active	Not Active	Not Active	Not Active	Not Active		
COc1cc(OC)c(C(=O)CCCN2CCCC2)c(OC)c1 [BUFLOMEDIL]	Not Active	Not Active	Not Active	Not Active	Not Active	Not Active	Not Active		
Cn1c(=O)c2c(ncn2C)n(C)c1=O [CAFFEINE]	Not Active	Not Active	Not Active	Not Active	Not Active	Not Active	Not Active		
ClC(Cl)(Cl)Cl [CARBON TETRACHLORIDE]	Not Active	Not Active	Not Active	Not Active	Not Active	Not Active	Not Active		
CO/N=C(\C(=O)N[C@@H]1C(=O)N2C(C(=O)O)=C(COC(C)=O)CS[C@H]12)c1csc(N)n1 [CEFOTAXIME]	Not Active	Not Active	Not Active	Not Active	Not Active	Not Active	Not Active		
CNC1=Nc2ccc(Cl)cc2C(c2ccccc2)=[N+]([O-])C1 [CHLORDIAZEPOXIDE]	Not Active	Not Active	Not Active	Not Active	Not Active	Not Active	Not Active		
CN(C)C(=O)Oc1cccc([N+](C)(C)C)c1.[Br-] [NEOSTIGMINE BROMIDE]	Not Active	Not Active	Not Active		Not Active	Not Active	Not Active		
CCN(CC)CCCC(C)Nc1c2ccc(Cl)cc2nc2ccc(OC)cc12 (stereo not drawn) [QUINACRINE]	Not Active	Not Active			Not Active	Not Active	Not Active	5.41	6.25
